“Also recorded” adds a separate entry of the source. Where a SMILES comes first, the peptide text is derived from it. [ ]: non-standard residue; d: D form. The star is where a group is joined. Sta = CC(C)C[C@H](N)[C@@H](O)CC(=O)O; Isovaleryl = CC(C)CC(=O)*
Legend:
Type in all cases: biochemical, human
[1] = test system: serine and/or cysteine proteinases cleaving Y63 and F62 of the β2-microglobulin long chain; test: Inhibition of cleavage of Y63 and F62 on the long chain (I1-Y63) of cleaved β2-microglobulin; details: occurs even at pH 6; EDTA 20 mmol/L
Text: Further confirmed non-tryptic cleavage sites on the long chain occur at F62 and then at S61, resulting in three major forms of long chains with calculated molecular weights of 7358.19 Da (I1-Y63), 7195.01 Da (I1-F62) and 7047.83 Da (I1-S61) (see FIG. 25B). […] In addition, three cleavage sites on the long chain have been identified by μLC-MS/MS (F22, N24 and C25), however, the resulting fragments were not detectable by SELDI-TOF-MS.

[2] = test system: protease family responsible for β2-microglobulin cleavage in urine; test: Determination of the protease family responsible for β2-microglobulin cleavage (urine spiked with intact β2-microglobulin and protease inhibitors, SELDI-TOF-MS); details: urine at pH 5, intact β2-microglobulin 10 mg/L, 37° C.; pepstatin 14.5 μM, Complete-Mini (EDTA-free) 0.2 tablets/mL, EDTA 20 mM
Description: These samples were then analysed by SELDI-TOF-MS immediately (column 1) and after 6 hours of incubation at 37° C. (column 2).
One mL of a urine sample from a healthy individual (total protein 110 mg/L, creatinine 18.9 mM, pH 5) and 1 mL of a urine sample from a patient with an acute clinical rejection episode showing the protein peak clusters (total protein 230 mg/L, creatinine 11.6 mM, pH 5) were incubated for 16 hours at 37° C. to degrade existing intact and cleaved β2-m. Four hundred μL of each sample were mixed with sodium acetate pH 5 (final concentration 166 mM) to ensure, stable pH and divided into four portions of 100 μL. Pepstatin (final concentration 14.5 μM), Complete-Mini (EDTA-free) (final concentration 0.2 tablets/mL), EDTA (final concentration 20 mM) or no protease inhibitors were added to each portion. Another 100 μL of each urine sample was brought to pH 6 by adding MES pH 6 (final concentration 166 mM). […] SELDI-TOF-MS analysis was performed immediately and after 1, 2, 4, 6 and 24 hours of incubation at 37° C.

[3] = test system: aspartic proteinase(s) performing initial cleavage of intact urinary β2-microglobulin; test: Inhibition of initial cleavage of intact urinary β2-microglobulin in patient urine at pH 4.5 (SELDI-TOF-MS); details: patient urine brought to pH 4.5
Description: Pepstatin is a well-established inhibitor of aspartic proteinases. […] Different proteinase-inhibitors were added (Pepstatin and Complete Mini EDTA-free, both from Roche, Switzerland).

| SMILES | Inhibition of the cleavage of the two amino acids Y63 and F62 on the long chain [1] | Inhibition of cleavage of intact β2-microglobulin [2] | Detectability of the intact form of β2-microglobulin after 6 to 24 hours in urine spiked with proteinase inhibitor [3] |
| --- | --- | --- | --- |
| O=C(O)CN(CCN(CC(=O)O)CC(=O)O)CC(=O)O [EDTA] | not | not | – |
| CC(C)CC(=O)N[C@H](C(=O)N[C@H](C(=O)N[C@@H](CC(C)C)[C@@H](O)CC(=O)N[C@@H](C)C(=O)N[C@@H](CC(C)C)[C@@H](O)CC(=O)O)C(C)C)C(C)C [Pepstatin] (Isovaleryl-VV[Sta]A[Sta]-OH) | not | could prevent β2-microglobulin cleavages; also recorded: could be inhibited; also recorded: could inhibit β2-microglobulin cleavage | still detectable in unchanged intensity; also recorded: can be inhibited |

Source: patent publication US20090093010A1, “Method of Detecting Kidney Dysfunction” (University of Manitoba, priority 2004, published 2009)
